The target in one data set is T1, human CRF2 receptor (Homo sapiens, UniProt Q13324).
T1 construct: host or cells: HEK-293
T1 sequence (Q13324 1-411): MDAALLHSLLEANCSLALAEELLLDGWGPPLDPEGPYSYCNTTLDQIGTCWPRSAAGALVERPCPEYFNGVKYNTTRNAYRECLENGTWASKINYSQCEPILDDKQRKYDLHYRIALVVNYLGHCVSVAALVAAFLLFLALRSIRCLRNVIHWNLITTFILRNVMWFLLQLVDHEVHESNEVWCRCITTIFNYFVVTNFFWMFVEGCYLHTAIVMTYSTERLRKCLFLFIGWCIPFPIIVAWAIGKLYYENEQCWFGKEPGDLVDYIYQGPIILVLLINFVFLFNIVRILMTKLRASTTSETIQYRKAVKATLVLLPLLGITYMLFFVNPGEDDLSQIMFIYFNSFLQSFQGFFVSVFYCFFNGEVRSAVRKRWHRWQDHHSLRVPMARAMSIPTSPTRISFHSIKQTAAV
The data set is described as follows: Antagonistic activity against CRF2 receptor, CRF-induced cAMP production (HTRF) in HEK-293 cells. The format is cell-based. The protocol:
(§1) Assays were performed at Eurofins Discovery (MO, USA). Briefly, evaluation of the inhibitory activities against human recombinant acetylcholinesterase (AChE) expressed in HEK-293 cells was performed by preincubation with test compound and/or vehicle with 41ng/ml of enzyme for 15 minutes at 25°C in phosphate buffer pH 7.4. After 20 minute incubation with 0.7 mM acetylthiocholine iodide and 0.5 mM 5,5-dithiobis-2-nitrobenzoic acid, the spectrophotometric absorbance was read at 405 nm (Catalog No. 104010). Evaluation of the antagonistic activities against human CRF2 receptor transfected in HEK-293 cells was performed by measuring the effects of the test compounds on cAMP production induced by 100 nM human CRF incubated for 30 minutes at room temperature via the HTRF detection method (Catalog No. 2086). Evaluation of the antagonistic activities against human dopamine D2, D3, and neuropeptide Y (NPY) Y2 receptors expressed in CHO-K1 cells, CHO-K1, and KAN-TS cells, respectively, was performed by preincubation of the test compounds and/or vehicle with the membrane proteins (0.1, 0.04, 0.04 mg/ml, respectively) and GDP (10, 1, 0.001 mM) in 20 mM HEPES, pH 7.4, 100 mM NaCl, 10 mM MgCl2, 1 mM DTT, and 1 mM EDTA for 20 minutes at 25°C, and SPA beads are then added for another 60 minutes at 30°C. The reaction was initiated by 0.3 nM [^35S]GTPγS for an additional incubation period (15, 30, 30 minute). Inhibition on increase of [^35S]GTPS binding response induced by dopamine (10, 0.03 mM) or 3 nM human NPY was assessed as receptor antagonist activities of test compounds (Catalog No. 310200, 310400, 332520). Evaluation of the antagonistic activities of shogaol and gingerol against human […] NPY Y2 receptor expressed in RBL cells was performed by measuring the effects of the test compounds on calcium flux induced by 15 nM human NPY (Catalog No. 4287). A concentration-response curve was generated to calculate IC50 values.

The target of data set [1] is T2, human recombinant acetylcholinesterase (AChE) (Homo sapiens, UniProt P22303).
T2 construct: purchased Eurofins Discovery 104010; host or cells: HEK-293
The data set is described as follows: Inhibition of recombinant acetylcholinesterase, spectrophotometric (acetylthiocholine/DTNB). As to conditions: pH 7.4, 25°C. It is filed as biochemical. Here is the method:
as §1

For data set [2], the target named is T3, human dopamine D2 receptor (Homo sapiens, UniProt P14416).
T3 construct: host or cells: CHO-K1 (membranes)
The data set can be described thus: Antagonistic activity against dopamine D2 receptor, [35S]GTPγS binding, CHO-K1 membranes. It is filed as biochemical. The protocol:
as §1

Data set [3] addresses T4, human dopamine D3 receptor (Homo sapiens, UniProt P35462).
T4 construct: host or cells: CHO-K1 (membranes)
The data set is described as follows: Antagonistic activity against dopamine D3 receptor, [35S]GTPγS binding, CHO-K1 membranes. It is filed as biochemical. Here is the method: as §1
Background: GTPγS resists hydrolysis and so accumulates on activated G proteins.

The target in data set [4] is T5, human neuropeptide Y (NPY) Y2 receptor (Homo sapiens, UniProt P49146).
T5 construct: host or cells: KAN-TS (membranes)
T5 sequence (P49146 1-381): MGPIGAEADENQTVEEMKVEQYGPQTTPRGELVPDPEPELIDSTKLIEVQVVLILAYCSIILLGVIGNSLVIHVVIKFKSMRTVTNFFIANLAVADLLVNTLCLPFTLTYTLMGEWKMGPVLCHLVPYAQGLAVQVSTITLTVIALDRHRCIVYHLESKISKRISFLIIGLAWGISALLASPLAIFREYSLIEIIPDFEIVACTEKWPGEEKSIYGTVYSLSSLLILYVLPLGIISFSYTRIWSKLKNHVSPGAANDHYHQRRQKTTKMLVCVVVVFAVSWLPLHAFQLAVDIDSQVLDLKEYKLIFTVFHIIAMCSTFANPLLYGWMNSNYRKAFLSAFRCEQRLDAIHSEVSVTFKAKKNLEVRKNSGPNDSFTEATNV
The data set is described as follows: Antagonistic activity against NPY Y2 receptor, [35S]GTPγS binding, KAN-TS membranes. It is filed as biochemical. Here is the method: as §1

The conditions of data set [5]: cited from earlier work.
The target of another data set is T6, human NPY Y2 receptor (Homo sapiens, UniProt P49146).
T6 construct: host or cells: RBL
T6 sequence (P49146 1-381): T5 sequence (P49146 1-381)
The data set can be described thus: Antagonistic activity of shogaol and gingerol against NPY Y2 receptor, calcium flux in RBL cells. It is filed as cell-based. As to conditions: calcium flux induced by 15 nM human NPY. Here is the method: as §1
(In general: Calcium assays in cells follow changes in intracellular calcium, usually with a dye or a luminescent sensor.)

The subject of a further data set is AChE. Conditions: cited from earlier work.
Another data set relates to C57BL/6 mice. The data set can be described thus: CRF-induced delayed gastric emptying of solid meal in mice. It is filed as in vivo. As to conditions: CRF ICV 0.3 and 1.0 μg/mouse, vs vehicle. The protocol:
Seven-week-old male C57BL/6 mice (weighing 20–27 g) were purchased from Charles River Laboratories (Tokyo, Japan). Five mice were housed in a plastic cage (230 × 310 × 155 mm) with bedding materials and acclimated for a week in a controlled environment (20–26°C, 30–70% humidity) under a 12-hour light/dark cycle with free access to standard chow and water. This study was approved by and conducted according to the guidelines of the experimental animal ethics committees of Tsumura & Co. (Tokyo, Japan; Permit No. 14-094-1).
BGH was manufactured by Tsumura & Co., complying with the quality standards authorized in the Japanese Pharmacopoeia, which was published under the authority of the Japanese Ministry of Health, Labour and Welfare. […]
Solid gastric emptying was evaluated using a test meal containing 20 g of ground meal and 40.61 mL of distilled water. […] The gastric emptying of solid meal was calculated using the equation below: […]

[6] abbreviates: inhibition of dopamine-induced [35S]GTPγS binding, read-out: IC50 value D2.
Setting [7] is: inhibition of dopamine-induced [35S]GTPγS binding, read-out: IC50 value D3.
The mark [8] stands for this setting: cAMP production induced by 100 nM human CRF, HEK-293, read-out: IC50 value CRF2.
[9] abbreviates: reported value from previous study (*) ref 23.

pIC50: −log10 of the molar value. Like-named read-outs stand apart in the source and are kept apart here. No end group written: not given here.

This is an account of results in paper PMC7013301 (Evidence-based Complementary and Alternative Medicine : eCAM, 2020).

T3 sequence (P14416 whole entry): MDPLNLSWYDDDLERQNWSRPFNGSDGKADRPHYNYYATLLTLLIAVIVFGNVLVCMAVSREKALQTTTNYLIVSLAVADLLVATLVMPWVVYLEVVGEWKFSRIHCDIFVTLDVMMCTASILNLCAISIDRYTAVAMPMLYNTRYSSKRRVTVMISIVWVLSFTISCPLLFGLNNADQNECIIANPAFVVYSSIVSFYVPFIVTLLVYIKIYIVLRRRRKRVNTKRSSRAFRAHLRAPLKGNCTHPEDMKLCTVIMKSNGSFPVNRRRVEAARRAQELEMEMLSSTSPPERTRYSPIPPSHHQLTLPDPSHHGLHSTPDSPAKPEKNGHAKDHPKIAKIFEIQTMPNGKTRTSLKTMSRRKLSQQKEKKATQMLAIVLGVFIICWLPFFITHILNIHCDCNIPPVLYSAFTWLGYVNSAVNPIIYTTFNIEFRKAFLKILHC
T2 sequence (P22303 32-614): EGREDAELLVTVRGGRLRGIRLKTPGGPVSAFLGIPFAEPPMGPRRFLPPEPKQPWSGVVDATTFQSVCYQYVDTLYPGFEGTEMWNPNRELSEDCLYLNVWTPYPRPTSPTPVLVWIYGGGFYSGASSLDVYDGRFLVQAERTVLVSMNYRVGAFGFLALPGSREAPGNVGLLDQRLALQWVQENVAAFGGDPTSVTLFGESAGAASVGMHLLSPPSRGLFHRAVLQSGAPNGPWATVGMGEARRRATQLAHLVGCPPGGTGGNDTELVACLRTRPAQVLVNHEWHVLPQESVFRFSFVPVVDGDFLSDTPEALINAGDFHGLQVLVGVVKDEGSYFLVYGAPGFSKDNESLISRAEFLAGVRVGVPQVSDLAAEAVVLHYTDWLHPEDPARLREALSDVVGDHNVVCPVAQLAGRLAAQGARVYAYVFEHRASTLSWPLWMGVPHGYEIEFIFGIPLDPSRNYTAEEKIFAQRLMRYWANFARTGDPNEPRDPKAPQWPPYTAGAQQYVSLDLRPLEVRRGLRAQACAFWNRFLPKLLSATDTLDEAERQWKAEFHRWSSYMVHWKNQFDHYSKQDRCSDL
T4 sequence (P35462 whole entry): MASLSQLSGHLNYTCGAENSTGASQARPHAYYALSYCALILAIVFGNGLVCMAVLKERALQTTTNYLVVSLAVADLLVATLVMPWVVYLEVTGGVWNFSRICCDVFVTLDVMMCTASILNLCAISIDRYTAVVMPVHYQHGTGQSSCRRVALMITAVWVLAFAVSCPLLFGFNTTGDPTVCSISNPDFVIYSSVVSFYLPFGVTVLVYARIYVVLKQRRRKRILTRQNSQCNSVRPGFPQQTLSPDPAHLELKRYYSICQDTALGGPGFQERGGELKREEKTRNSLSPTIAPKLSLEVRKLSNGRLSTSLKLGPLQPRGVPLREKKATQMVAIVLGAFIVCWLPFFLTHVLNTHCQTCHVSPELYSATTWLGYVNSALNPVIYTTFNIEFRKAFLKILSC

Take `O=C(/C=C/c1ccc(O)c(O)c1)O[C@H](Cc1ccc(O)c(O)c1)C(=O)O` [Rosmarinic acid]: the pIC50 (commonly −log10 of the IC50, conventionally taken in molar units) against human CRF2 receptor is less than 4.00; in data set [1] it was less than 4.00; in data set [2] (setting [6]), less than 4.00; in [3] (setting [7]), 6.27; in data set [4], less than 4.00. For the same compound, the Blood-brain barrier permeability result in data set [5] was “extremely low”.

In the case of `CCCCCCCCC[C@H](O)CC(=O)CCc1ccc(O)c(OC)c1` [10-Gingerol], the pIC50 on human CRF2 receptor (setting [8]) was less than 4.00; in [1], 4.59; in data set [2] (setting [6]), less than 4.00; in data set [3] (setting [7]) it was less than 4.00; on human NPY Y2 receptor, less than 4.00.

`CCCCCCC/C=C/C(=O)CCc1ccc(O)c(OC)c1` [8-Shogaol]: the pIC50 on human CRF2 receptor (setting [8]) was less than 4.00; in [1] it was 4.72; in data set [2] (setting [6]), 5.14; in data set [3] (setting [7]), 4.95; on human NPY Y2 receptor it was less than 4.00. Also, the “Detection in the brain” value in data set [5] (after oral administration of ginger extract ref 34) is recorded as “not detected in the brain”.

With `O=c1cc(-c2ccc(O)c(O)c2)oc2cc(O)cc(O)c12` [Luteolin], the pIC50 at human CRF2 receptor (setting [8]) was less than 4.00; in [2], 4.31; in data set [3], less than 4.00; in data set [4] (inhibition of [35S]GTPγS binding induced by 3 nM human NPY, KAN-TS cells, read-out: IC50 value NPY Y2) it was 5.08; in the data set on AChE (reported value from previous study (**) ref 24) it was 4.49. Besides, in data set [5] (in vivo), the Blood-brain barrier passage entry was “capable of crossing blood-brain barrier”.

As to `CCCCC/C=C/C(=O)CCc1ccc(O)c(OC)c1` [6-Shogaol], the pIC50 on human CRF2 receptor (setting [8]) was less than 4.00; in data set [1] it was less than 4.00; in [2] (setting [6]), less than 4.00; in data set [3] (setting [7]) it was 4.95; on human NPY Y2 receptor, less than 4.00.

In the case of “CRF: Stress hormone corticotropin-releasing factor (4136-s; Peptide Institute), injected ICV to induce delayed gastric emptying (SEEPPISLDLTFHLLREVLEMARAEQLAQQAHSNRKLMEII; ends and bridges not checked; UniProt P06850 154-194, looked up)”, the “Gastric emptying rate of solid test meal (2 hours) after CRF” value with C57BL/6 mice is “significantly decreased”.

Turning to `C=CCc1ccc(O)c(-c2ccc(O)c(CC=C)c2)c1` [Honokiol], the pIC50 was 4.40 on human CRF2 receptor; 4.44 in data set [2] (setting [6]); 4.28 in data set [3] (setting [7]); less than 4.00 in data set [4]; 4.24 with AChE (setting [9]). The Blood-brain barrier passage entry in [5] was “capable of traversing the blood-brain barrier”.

For the compound `C=CCc1ccc(O)c(-c2cc(CC=C)ccc2O)c1` [Magnolol], the pIC50 against human CRF2 receptor is 4.49; in data set [2], 4.37; in [3] it was 4.30; in [4], less than 4.00; with AChE (setting [9]) it was 4.16. Moreover, the Blood-brain barrier passage result in data set [5] is recorded as “capable of traversing the blood-brain barrier”.
